# In patent publication US8361998B2, “Compounds and their use as IKACh blockers” (AstraZeneca AB, priority 2010, dated 2013):
# Where a name gives a salt, the structure may show the parent alone.
# Target: T1, human ether-a-go-go-related gene (hERG)-encoded K+ channel (Homo sapiens, UniProt Q12809)
# T1 construct: expressed in transfected cells; host or cells: Chinese hamster ovary K1 (CHO) cells
# Assay: hERG inhibition, IonWorks HT, hERG-expressing CHO cells
# Type: cell-based
# Description: Inhibition of the human ether-a-go-go-related gene (hERG)-encoded K^+ channel was determined using hERG-expressing Chinese hamster ovary K1 (CHO) cells on a IonWorks™ HT assay platform as described by M. H. Bridgland-Taylor et al. J. of Pharmacological and Toxicological Methods (2006); 54:189-199.
# T1 sequence (Q12809 whole entry): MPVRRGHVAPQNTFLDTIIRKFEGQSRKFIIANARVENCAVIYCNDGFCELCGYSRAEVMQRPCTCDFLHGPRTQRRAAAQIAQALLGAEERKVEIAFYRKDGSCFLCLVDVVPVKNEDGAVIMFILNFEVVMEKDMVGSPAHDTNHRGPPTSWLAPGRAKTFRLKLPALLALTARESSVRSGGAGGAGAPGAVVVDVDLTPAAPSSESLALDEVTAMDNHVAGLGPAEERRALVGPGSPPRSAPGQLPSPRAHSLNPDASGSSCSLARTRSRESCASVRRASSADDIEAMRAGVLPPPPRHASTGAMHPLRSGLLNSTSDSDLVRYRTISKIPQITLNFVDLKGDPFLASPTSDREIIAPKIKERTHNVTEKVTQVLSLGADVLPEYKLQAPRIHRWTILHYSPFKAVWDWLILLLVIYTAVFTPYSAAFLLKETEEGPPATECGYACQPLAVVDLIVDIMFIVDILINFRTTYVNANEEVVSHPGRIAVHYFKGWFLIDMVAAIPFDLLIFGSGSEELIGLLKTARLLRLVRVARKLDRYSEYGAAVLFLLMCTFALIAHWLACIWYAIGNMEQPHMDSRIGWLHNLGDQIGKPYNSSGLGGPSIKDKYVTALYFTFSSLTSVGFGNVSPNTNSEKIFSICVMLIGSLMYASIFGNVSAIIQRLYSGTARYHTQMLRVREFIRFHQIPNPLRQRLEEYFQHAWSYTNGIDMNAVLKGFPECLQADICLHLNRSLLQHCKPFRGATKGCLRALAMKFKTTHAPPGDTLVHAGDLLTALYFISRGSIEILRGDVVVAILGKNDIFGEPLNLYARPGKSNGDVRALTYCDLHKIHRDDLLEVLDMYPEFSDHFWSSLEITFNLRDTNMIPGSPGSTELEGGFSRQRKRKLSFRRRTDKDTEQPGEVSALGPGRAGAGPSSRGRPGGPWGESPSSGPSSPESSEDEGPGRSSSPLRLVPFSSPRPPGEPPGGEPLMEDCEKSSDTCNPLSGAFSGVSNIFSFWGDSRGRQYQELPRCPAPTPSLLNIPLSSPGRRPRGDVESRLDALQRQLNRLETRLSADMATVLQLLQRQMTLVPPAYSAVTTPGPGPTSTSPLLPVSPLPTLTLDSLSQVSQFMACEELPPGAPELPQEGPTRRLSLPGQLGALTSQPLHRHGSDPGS
row,SMILES,IC50 [µM]
1,"Cc1cc(C(=O)N(C)[C@H](CN2CC(O)C2)C2CC2)ccc1F [Example 7.1, (S)—N-(1-Cyclopropyl-2-(3-hydroxyazetidin-1-yl)ethyl)-4-fluoro-N,3-dimethylbenzamide]",> 33
2,"CCC[C@@H](CN1CC(O)C1)N(C)C(=O)c1ccc(Cl)cc1 [Example 8.2, (S)-4-Chloro-N-(1-(3-hydroxyazetidin-1-yl)pentan-2-yl)-N-methyl-benzamide, hydrochloride]",> 57
3,"CN(C(=O)c1ccc(Cl)cc1)[C@H](CN1CC(O)C1)C1CCC1 [Example 39.14, (S)-4-Chloro-N-(1-cyclobutyl-2-(3-hydroxyazetidin-1-yl)ethyl)-N-methylbenzamide]",> 33
4,"CC(C)[C@@H](CN1CCCC1)N(C)C(=O)c1ccc(F)c(Cl)c1 [Example 16.55, (S)-3-Chloro-4-fluoro-N-methyl-N-(3-methyl-1-(pyrrolidin-1-yl)butan-2-yl)benzamide]",> 31
5,"CC(C)[C@@H](CN1CCCC1)N(C)C(=O)c1ccc(Cl)cc1 [Example 18, (S)-1-(2-(4-Chloro-N-methylbenzamido)-3-methylbutyl)pyrrolidinium chloride]",> 30
6,"CN(C(=O)c1ccc(F)c(Cl)c1)[C@H](CN1CC(O)C1)C1CC1 [Example 7.3, (S)-3-Chloro-N-(1-cyclopropyl-2-(3-hydroxyazetidin-1-yl)ethyl)-4-fluoro-N-methylbenzamide]",> 33
7,"CCC[C@@H](CN1CCC1)N(C)C(=O)c1ccc(F)c(C)c1 [Example 1.4, (S)-N-(1-(Azetidin-1-yl)pentan-2-yl)-4-fluoro-N,3-dimethyl-benzamide]",> 33
8,"CC(C)[C@@H](CN1CCCC1)N(C)C(=O)c1ccc(Br)cc1 [Example 19, (S)-1-(2-(4-bromo-N-methylbenzamido)-3-methylbutyl)pyrrolidinium 3-carboxy-2,3-dihydroxypropanoate]",17
9,"Cc1cc(C(=O)N(C)[C@H](CN2CCC2)C2CC2)ccc1F [Example 4.1, (S)—N-(2-(Azetidin-1-yl)-1-cyclopropylethyl)-4-fluoro-N,3-dimethylbenzamide]",> 33
10,"CC(C)C[C@@H](CN1CC(O)C1)N(C)C(=O)c1ccc(C#N)cc1F [Example 38.6, 4-Cyano-2-fluoro-N-[(2S)-1-(3-hydroxyazetidin-1-yl)-4-methylpentan-2-yl]-N-methylbenzamide]",> 33
11,CC(C)[C@@H](CN1CCC1)N(C)C(=O)c1ccc(Br)cc1.O=C(O)CCC(=O)O [Example 5.2],34
12,"CN(C(=O)c1ccc(Br)cc1)[C@H](CN1CC(O)C1)C1CC1 [Example 4.4, (S)-4-Bromo-N-(1-cyclopropyl-2-(3-hydroxyazetidin-1-yl)ethyl)-N-methylbenzamide]",> 33
13,"Cc1cccc(C(=O)N(C)[C@H](CN2CCCC2)C(C)C)c1 [Example 12.2, (S)-1-(2-(N,3-Dimethylbenzamido)-3-methylbutyl)pyrrolidinium 2,3-dihydroxysuccinate]",> 33
14,"CC(C)[C@@H](CN1CC[C@H](O)C1)N(C)C(=O)c1ccc(Cl)cc1 [Example 10.2, 4-Chloro-N-((S)-1-((S)-3-hydroxypyrrolidin-1-yl)-3-methylbutan-2-yl)-N-methylbenzamide hemi tartrate]",> 33
15,"Cc1cc(C(=O)N(C)[C@H](CN2CC(O)C2)C2CCC2)ccc1F [Example 39.16, (S)—N-(1-Cyclobutyl-2-(3-hydroxyazetidin-1-yl)ethyl)-4-fluoro-N,3-dimethylbenzamide]",> 33
16,"CC(C)[C@@H](CN1CC(O)C1)N(C)C(=O)c1ccc(Cl)cc1 [Example 6.2, (S)-4-Chloro-N-(1-(3-hydroxyazetidin-1-yl)-3-methylbutan-2-yl)-N-methylbenzamide]",> 53

row,SMILES,IC50 [µM]
1,"CC(C)C[C@@H](CN1CC(O)C1)N(C)C(=O)c1ccc(Cl)cc1 [Example 38.2, 4-Chloro-N-[(2S)-1-(3-hydroxyazetidin-1-yl)-4-methylpentan-2-yl]-N-methylbenzamide]",> 33
2,"CCC[C@@H](CN1CC(O)C1)N(C)C(=O)c1ccc(F)c(F)c1 [Example 8.1, (S)-3,4-Difluoro-N-(1-(3-hydroxyazetidin-1-yl)pentan-2-yl)-N-methylbenzamide]",> 100
3,"CCCC[C@@H](CN1CC(O)C1)N(C)C(=O)c1ccc(C#N)cc1 [Example 33.4, 4-Cyano-N-[(2S)-1-(3-hydroxyazetidin-1-yl)hexan-2-yl]-N-methylbenzamide]",18
4,"CCC[C@@H](CN1CC(O)C1)N(C)C(=O)c1ccc(F)cc1 [Example 8.6, (S)-4-Fluoro-N-(1-(3-hydroxyazetidin-1-yl)pentan-2-yl)-N-methylbenzamide]",> 33
5,"CN(C(=O)c1ccc(Cl)cc1)[C@H](CN1CC(O)C1)C1CC1 [Example 7.2, (S)-4-Chloro-N-(1-cyclopropyl-2-(3-hydroxyazetidin-1-yl)ethyl)-N-methylbenzamide]",> 33
6,"Cc1cc(C(=O)N(C)[C@H](CN2CC(O)C2)C(C)C)ccc1F [Example 6.1, (S)-4-Fluoro-N-(1-(3-hydroxyazetidin-1-yl)-3-methylbutan-2-yl)-N,3-dimethylbenzamide]",> 100
7,"CC(C)C[C@@H](CN1CC(O)C1)N(C)C(=O)c1ccc(F)c(F)c1 [Example 38.1, 3,4-Difluoro-N-[(2S)-1-(3-hydroxyazetidin-1-yl)-4-methylpentan-2-yl]-N-methylbenzamide]",> 33
8,"CCCC[C@@H](CN1CC(O)C1)N(C)C(=O)c1ccc(F)cc1 [Example 33.7, 4-Fluoro-N-[(2S)-1-(3-hydroxyazetidin-1-yl)hexan-2-yl]-N-methylbenzamide]",79
9,"CC[C@H](C)[C@@H](CN1CC(O)C1)N(C)C(=O)c1ccc(C#N)cc1F [Example 29.7, 4-Cyano-2-fluoro-N-((2S,3S)-1-(3-hydroxyazetidin-1-yl)-3-methylpentan-2-yl)-N-methylbenzamide]",> 33
10,"Cc1cc(C(=O)N(C)[C@H](CN2CCCC2)C(C)C)ccc1F [Example 12.1, (S)-4-Fluoro-N,3-dimethyl-N-(3-methyl-1-(pyrrolidin-1-yl)butan-2-yl)benzamide-dihydroxysuccinate]",> 100
11,"CC(C)[C@@H](CN1CCC1)N(C)C(=O)c1ccc(Cl)cc1 [Example 5.1, (S)-N-(1-(Azetidin-1-yl)-3-methylbutan-2-yl)-4-chloro-N-methylbenzamide]",76
12,"CC(C)[C@@H](CN1CCCC1)N(C)C(=O)c1ccc(F)cc1Cl [Example 1.17, (S)-2-Chloro-4-fluoro-N-methyl-N-(3-methyl-1-(pyrrolidin-1-yl)butan-2-yl)benzamide]",> 100
13,"CCC[C@@H](CN1CCC1)N(C)C(=O)c1ccc(Cl)cc1 [Example 1.2, (S)-N-(1-(Azetidin-1-yl)pentan-2-yl)-4-chloro-N-methylbenzamide]",20
14,"CC[C@@H](CN1CC(O)C1)N(C)C(=O)c1ccc(Cl)cc1 [Example 39.12, (S)-4-Chloro-N-(1-(3-hydroxyazetidin-1-yl)butan-2-yl)-N-methylbenzamide]",> 33
15,"CN(C(=O)c1ccc(C#N)cc1)[C@H](CN1CC(O)C1)C1CCC1 [Example 39.2, (S)-4-Cyano-N-(1-cyclobutyl-2-(3-hydroxyazetidin-1-yl)ethyl)-N-methylbenzamide]",80
